Data published in the supplement of paper PMC6045584.
± gives the standard deviation of the averaged measurements.

Tests used:
MDV3100 = compound: CNC(=O)c1ccc(N2C(=S)N(c3ccc(C#N)c(C(F)(F)F)c3)C(=O)C2(C)C)cc1F [MDV3100]; assay: surviving fraction relative to DMSO-only wells; higher = less growth inhibition; conditions: exposure time: 5 days
Procedure, shortened: (§1)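 Five days of continuous inhibitor exposure, at 0.5, 1, 5, 10, 50, 100, 500 and 1000 nM, followed a 24-hour period after log-phase tumour cell lines were seeded at 250–500 cells per well in 384-well plates. Surviving fraction was derived from CellTiter-Glo luminescence relative to the median of DMSO-only wells. Plates were read after 10 minutes at room temperature, and lines screened three times were kept only if replicate Pearson r >0.7 and median Z' >0.3.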

BI-2536 = compound: CC[C@@H]1C(=O)N(C)c2cnc(Nc3ccc(C(=O)NC4CCN(C)CC4)cc3OC)nc2N1C1CCCC1 [BI-2536]; assay: as above; conditions: exposure time: 5 days
Procedure, shortened: as §1

Test System | surviving fraction (MDV3100; 0.5 nM) | surviving fraction (MDV3100; 1 nM) | surviving fraction (MDV3100; 5 nM) | surviving fraction (MDV3100; 10 nM) | surviving fraction (MDV3100; 50 nM) | surviving fraction (MDV3100; 100 nM) | surviving fraction (MDV3100; 500 nM) | surviving fraction (MDV3100; 1000 nM) | surviving fraction (BI-2536; 0.5 nM) | surviving fraction (BI-2536; 1 nM) | surviving fraction (BI-2536; 5 nM) | surviving fraction (BI-2536; 10 nM) | surviving fraction (BI-2536; 50 nM) | surviving fraction (BI-2536; 100 nM) | surviving fraction (BI-2536; 500 nM) | surviving fraction (BI-2536; 1000 nM)
T47D BREAST | 0.9561 ± 0.0072 | 0.988 ± 0.044 | 0.983 ± 0.021 | 0.894 ± 0.035 | 1.1 ± 0.015 | 1.02 ± 0.036 | 1.03 ± 0.047 | 0.999 ± 0.041 | 0.981 ± 0.018 | 0.871 ± 0.016 | 0.551 ± 0.017 | 0.488 ± 0.01 | 0.374 ± 0.019 | 0.53 ± 0.035 | 0.2606 ± 0.0011 | 0.276 ± 0.011
SCC36 HEADNECK | 0.992 ± 0.091 | 0.955 ± 0.1 | 0.957 ± 0.065 | 1.11 ± 0.068 | 1.09 ± 0.028 | 1.03 ± 0.059 | 0.924 ± 0.051 | 0.907 ± 0.099 | 0.945 ± 0.088 | 0.897 ± 0.19 | 0.189 ± 0.011 | 0.191 ± 0.01 | 0.291 ± 0.04 | 0.24 ± 0.018 | 0.114 ± 0.0061 | 0.07 ± 0.0053
22RV1 PROSTATE | 0.953 ± 0.067 | 0.954 ± 0.061 | 0.997 ± 0.051 | 0.938 ± 0.066 | 0.934 ± 0.12 | 0.968 ± 0.04 | 0.862 ± 0.21 | 0.781 ± 0.27 | 1.01 ± 0.1 | 0.973 ± 0.029 | 0.1 ± 0.016 | 0.085 ± 0.012 | 0.159 ± 0.0085 | 0.221 ± 0.012 | 0.216 ± 0.013 | 0.213 ± 0.014
93VU HEADNECK | 0.848 ± 0.096 | 0.876 ± 0.058 | 1.05 ± 0.099 | 0.994 ± 0.12 | 1.07 ± 0.15 | 1.04 ± 0.22 | 0.887 ± 0.03 | 0.771 ± 0.016 | 1.11 ± 0.12 | 1.05 ± 0.06 | 0.507 ± 0.077 | 0.27 ± 0.012 | 0.258 ± 0.0056 | 0.333 ± 0.056 | 0.205 ± 0.023 | 0.123 ± 0.0066
CADOES1 SOFT TISSUE | 0.925 ± 0.1 | 0.911 ± 0.12 | 0.777 ± 0.092 | 0.848 ± 0.07 | 0.871 ± 0.087 | 0.899 ± 0.093 | 0.955 ± 0.068 | 1.05 ± 0.02 | 1.04 ± 0.059 | 0.939 ± 0.059 | 0.872 ± 0.093 | 0.792 ± 0.12 | 0.193 ± 0.025 | 0.0877 ± 0.018 | 0.0517 ± 0.016 | 0.0513 ± 0.0051
HELA CERVIX | 0.931 ± 0.035 | 0.923 ± 0.0096 | 0.929 ± 0.023 | 0.888 ± 0.036 | 0.999 ± 0.034 | 1.02 ± 0.065 | 1.08 ± 0.069 | 1.03 ± 0.047 | 1.05 ± 0.05 | 1.048 ± 0.0063 | 0.243 ± 0.048 | 0.033 ± 0.00087 | 0.0492 ± 0.0016 | 0.0475 ± 0.0049 | 0.11 ± 0.0041 | 0.133 ± 0.013
MFM223 BREAST | 1.1 ± 0.12 | 1.14 ± 0.17 | 1.19 ± 0.17 | 1.12 ± 0.17 | 1.06 ± 0.074 | 1.08 ± 0.041 | 1.09 ± 0.036 | 1.02 ± 0.095 | 0.818 ± 0.041 | 0.338 ± 0.017 | 0.0768 ± 0.0068 | 0.0932 ± 0.0063 | 0.137 ± 0.012 | 0.148 ± 0.012 | 0.141 ± 0.011 | 0.106 ± 0.016
CHLA90 AUTONOMIC GANGLIA | 0.946 ± 0.11 | 0.812 ± 0.07 | 0.878 ± 0.077 | 0.362 ± 0.028 | 1 ± 0.078 | 0.94 ± 0.12 | 1 ± 0.076 | 0.625 ± 0.14 | 1.07 ± 0.045 | 0.978 ± 0.062 | 0.408 ± 0.032 | 0.203 ± 0.01 | 0.167 ± 0.027 | 0.135 ± 0.015 | 0.132 ± 0.0078 | 0.0863 ± 0.0025
143B BONE | 1.07 ± 0.061 | 1.1 ± 0.1 | 1.09 ± 0.086 | 1.09 ± 0.088 | 1.13 ± 0.12 | 1.13 ± 0.11 | 1.11 ± 0.11 | 1.1 ± 0.093 | 1.01 ± 0.023 | 0.954 ± 0.0071 | 0.117 ± 0.013 | 0.0745 ± 0.005 | 0.082 ± 0.0042 | 0.114 ± 0.013 | 0.254 ± 0.0014 | 0.235 ± 0.025
SCC90 HEADNECK | 0.893 ± 0.093 | 0.91 ± 0.076 | 1.04 ± 0.11 | 0.942 ± 0.1 | 1.17 ± 0.2 | 1.03 ± 0.13 | 0.86 ± 0.054 | 0.925 ± 0.099 | 0.939 ± 0.12 | 0.461 ± 0.057 | 0.075 ± 0.0044 | 0.0887 ± 0.0087 | 0.148 ± 0.007 | 0.198 ± 0.022 | 0.217 ± 0.036 | 0.138 ± 0.011
SG28 HEADNECK | 1.19 ± 0.035 | 1.06 ± 0.0078 | 1.02 ± 0.086 | 0.762 ± 0.034 | 0.949 ± 0.062 | 1.01 ± 0.06 | 1.11 ± 0.067 | 0.946 ± 0.13 | 1.19 ± 0.14 | 1.063 ± 0.0017 | 0.864 ± 0.04 | 0.87 ± 0.046 | 0.961 ± 0.11 | 0.687 ± 0.064 | 0.478 ± 0.084 | 0.279 ± 0.053
